{"source": "ChEMBL document CHEMBL4765227", "about": "“Hit to lead optimization of a series of N-[4-(1,3-benzothiazol-2-yl)phenyl]acetamides as monoacylglycerol lipase inhibitors with potential anticancer activity” (Eur J Med Chem, 2016)", "key": {"[1]": {"biological_target": "T1, Monoglyceride lipase (Homo sapiens, UniProt Q99685)", "T1 sequence (Q99685 whole entry)": "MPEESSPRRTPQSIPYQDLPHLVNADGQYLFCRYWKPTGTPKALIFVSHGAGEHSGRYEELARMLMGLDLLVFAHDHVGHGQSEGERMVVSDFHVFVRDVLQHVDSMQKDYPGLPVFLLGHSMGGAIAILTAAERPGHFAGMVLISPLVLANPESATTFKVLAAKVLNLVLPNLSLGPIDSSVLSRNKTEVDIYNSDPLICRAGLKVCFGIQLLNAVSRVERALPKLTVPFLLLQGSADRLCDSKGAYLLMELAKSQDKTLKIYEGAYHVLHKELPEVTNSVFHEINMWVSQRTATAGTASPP", "test": "Inhibition of human MAGL using 4-Nitrophenylacetate as substrate"}, "[2]": {"system": "CCRF-CEM", "test": "Growth inhibition of human CCRF-CEM cells at 10 uM incubated for 48 hrs by sulforhodamine B assay relative to control", "type": "functional", "settings": "read-out: GI"}, "[3]": {"system": "EKVX", "test": "Growth inhibition of human EKVX cells at 10 uM incubated for 48 hrs by sulforhodamine B assay relative to control", "type": "functional", "settings": "read-out: GI"}, "[4]": {"system": "HOP-62", "test": "Growth inhibition of human HOP-62 cells at 10 uM incubated for 48 hrs by sulforhodamine B assay relative to control", "type": "functional", "settings": "read-out: GI"}, "[5]": {"system": "HOP-92", "test": "Growth inhibition of human HOP-92 cells at 10 uM incubated for 48 hrs by sulforhodamine B assay relative to control", "type": "functional", "settings": "read-out: GI"}, "[6]": {"system": "NCI-H460", "test": "Growth inhibition of human NCI-H460 cells at 10 uM incubated for 48 hrs by sulforhodamine B assay relative to control", "type": "functional", "settings": "read-out: GI"}, "[7]": {"system": "COLO 205", "test": "Growth inhibition of human COLO 205 cells at 10 uM incubated for 48 hrs by sulforhodamine B assay relative to control", "type": "functional", "settings": "read-out: GI"}, "[8]": {"system": "HCT-116", "test": "Growth inhibition of human HCT-116 cells at 10 uM incubated for 48 hrs by sulforhodamine B assay relative to control", "type": "functional", "settings": "read-out: GI"}, "[9]": {"system": "HCT-15", "test": "Growth inhibition of human HCT-15 cells at 10 uM incubated for 48 hrs by sulforhodamine B assay relative to control", "type": "functional", "settings": "read-out: GI"}, "[10]": {"system": "SW-620", "test": "Growth inhibition of human SW-620 cells at 10 uM incubated for 48 hrs by sulforhodamine B assay relative to control", "type": "functional", "settings": "read-out: GI"}, "[11]": {"system": "SNB-75", "test": "Growth inhibition of human SNB-75 cells at 10 uM incubated for 48 hrs by sulforhodamine B assay relative to control", "type": "functional", "settings": "read-out: GI"}, "[12]": {"system": "LOX IMVI", "test": "Growth inhibition of human LOX IMVI cells at 10 uM incubated for 48 hrs by sulforhodamine B assay relative to control", "type": "functional", "settings": "read-out: GI"}, "[13]": {"system": "SK-MEL-2", "test": "Growth inhibition of human SK-MEL-2 cells at 10 uM incubated for 48 hrs by sulforhodamine B assay relative to control", "type": "functional", "settings": "read-out: GI"}, "[14]": {"system": "SK-MEL-28", "test": "Growth inhibition of human SK-MEL-28 cells at 10 uM incubated for 48 hrs by sulforhodamine B assay relative to control", "type": "functional", "settings": "read-out: GI"}, "[15]": {"system": "NCI/ADR-RES", "test": "Growth inhibition of human NCI/ADR-RES cells at 10 uM incubated for 48 hrs by sulforhodamine B assay relative to control", "type": "functional", "settings": "read-out: GI"}, "[16]": {"system": "A498", "test": "Growth inhibition of human A498 cells at 10 uM incubated for 48 hrs by sulforhodamine B assay relative to control", "type": "functional", "settings": "read-out: GI"}, "[17]": {"system": "CAKI-1", "test": "Growth inhibition of human CAKI-1 cells at 10 uM incubated for 48 hrs by sulforhodamine B assay relative to control", "type": "functional", "settings": "read-out: GI"}}}
{"smiles": "O=C(CN1C(=O)C(=O)c2ccccc21)Nc1ccc(-c2nc3ccccc3s2)cc1", "values": [{"measurement": "IC50", "setting": "[1]", "result": "> 100", "unit": "µM"}, {"measurement": "inhibition of growth at 10 µM", "setting": "[2]", "result": 21.8, "unit": "%"}, {"measurement": "inhibition of growth at 10 µM", "setting": "[3]", "result": 14.2, "unit": "%"}, {"measurement": "inhibition of growth at 10 µM", "setting": "[4]", "result": -12.7, "unit": "%"}, {"measurement": "inhibition of growth at 10 µM", "setting": "[5]", "result": 32.6, "unit": "%"}, {"measurement": "inhibition of growth at 10 µM", "setting": "[6]", "result": -2.87, "unit": "%"}, {"measurement": "inhibition of growth at 10 µM", "setting": "[7]", "result": 0.13, "unit": "%"}, {"measurement": "inhibition of growth at 10 µM", "setting": "[8]", "result": 9.11, "unit": "%"}, {"measurement": "inhibition of growth at 10 µM", "setting": "[9]", "result": 2.95, "unit": "%"}, {"measurement": "inhibition of growth at 10 µM", "setting": "[10]", "result": -0.74, "unit": "%"}, {"measurement": "inhibition of growth at 10 µM", "setting": "[11]", "result": 9.83, "unit": "%"}, {"measurement": "inhibition of growth at 10 µM", "setting": "[12]", "result": -0.17, "unit": "%"}, {"measurement": "inhibition of growth at 10 µM", "setting": "[13]", "result": 0.87, "unit": "%"}, {"measurement": "inhibition of growth at 10 µM", "setting": "[14]", "result": -15.4, "unit": "%"}, {"measurement": "inhibition of growth at 10 µM", "setting": "[15]", "result": -2.79, "unit": "%"}, {"measurement": "inhibition of growth at 10 µM", "setting": "[16]", "result": 10.7, "unit": "%"}, {"measurement": "inhibition of growth at 10 µM", "setting": "[17]", "result": -1.81, "unit": "%"}]}
{"smiles": "O=C(CN(c1ccccc1)c1ccccc1)Nc1ccc(-c2nc3ccccc3s2)cc1", "values": [{"measurement": "IC50", "setting": "[1]", "result": "> 100", "unit": "µM"}, {"measurement": "inhibition of growth at 10 µM", "setting": "[2]", "result": -6.75, "unit": "%"}, {"measurement": "inhibition of growth at 10 µM", "setting": "[3]", "result": -9.19, "unit": "%"}, {"measurement": "inhibition of growth at 10 µM", "setting": "[4]", "result": -5.28, "unit": "%"}, {"measurement": "inhibition of growth at 10 µM", "setting": "[5]", "result": 11.2, "unit": "%"}, {"measurement": "inhibition of growth at 10 µM", "setting": "[6]", "result": -0.29, "unit": "%"}, {"measurement": "inhibition of growth at 10 µM", "setting": "[7]", "result": -3.6, "unit": "%"}, {"measurement": "inhibition of growth at 10 µM", "setting": "[8]", "result": -5.38, "unit": "%"}, {"measurement": "inhibition of growth at 10 µM", "setting": "[9]", "result": -8.11, "unit": "%"}, {"measurement": "inhibition of growth at 10 µM", "setting": "[10]", "result": -3.33, "unit": "%"}, {"measurement": "inhibition of growth at 10 µM", "setting": "[11]", "result": 2.08, "unit": "%"}, {"measurement": "inhibition of growth at 10 µM", "setting": "[12]", "result": 6.1, "unit": "%"}, {"measurement": "inhibition of growth at 10 µM", "setting": "[13]", "result": -0.42, "unit": "%"}, {"measurement": "inhibition of growth at 10 µM", "setting": "[14]", "result": -10.5, "unit": "%"}, {"measurement": "inhibition of growth at 10 µM", "setting": "[15]", "result": -9.25, "unit": "%"}, {"measurement": "inhibition of growth at 10 µM", "setting": "[16]", "result": 6.91, "unit": "%"}, {"measurement": "inhibition of growth at 10 µM", "setting": "[17]", "result": 0.37, "unit": "%"}]}
{"smiles": "O=C(Cn1c2ccccc2c2ccccc21)Nc1ccc(-c2nc3ccccc3s2)cc1", "values": [{"measurement": "IC50", "setting": "[1]", "result": "> 100", "unit": "µM"}, {"measurement": "inhibition of growth at 10 µM", "setting": "[2]", "result": -5.65, "unit": "%"}, {"measurement": "inhibition of growth at 10 µM", "setting": "[3]", "result": -3.36, "unit": "%"}, {"measurement": "inhibition of growth at 10 µM", "setting": "[4]", "result": -0.99, "unit": "%"}, {"measurement": "inhibition of growth at 10 µM", "setting": "[5]", "result": -7.01, "unit": "%"}, {"measurement": "inhibition of growth at 10 µM", "setting": "[6]", "result": -1.93, "unit": "%"}, {"measurement": "inhibition of growth at 10 µM", "setting": "[7]", "result": -8.95, "unit": "%"}, {"measurement": "inhibition of growth at 10 µM", "setting": "[8]", "result": -7.02, "unit": "%"}, {"measurement": "inhibition of growth at 10 µM", "setting": "[9]", "result": -0.3, "unit": "%"}, {"measurement": "inhibition of growth at 10 µM", "setting": "[10]", "result": -2.44, "unit": "%"}, {"measurement": "inhibition of growth at 10 µM", "setting": "[11]", "result": 3.22, "unit": "%"}, {"measurement": "inhibition of growth at 10 µM", "setting": "[12]", "result": 8.68, "unit": "%"}, {"measurement": "inhibition of growth at 10 µM", "setting": "[13]", "result": -0.88, "unit": "%"}, {"measurement": "inhibition of growth at 10 µM", "setting": "[14]", "result": -7.99, "unit": "%"}, {"measurement": "inhibition of growth at 10 µM", "setting": "[15]", "result": -1.93, "unit": "%"}, {"measurement": "inhibition of growth at 10 µM", "setting": "[16]", "result": 9.51, "unit": "%"}, {"measurement": "inhibition of growth at 10 µM", "setting": "[17]", "result": 1.03, "unit": "%"}]}
